In the supplement of paper PMC10307832:

Experiments:
Experiment in all cases: relative viability (nuclei count vs DMSO), 5 days (fraction); higher = more cells survive
HCC-78 = tested on: HCC-78
How it was run: (§1)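 Values are medians from duplicate plates. Each reflects relative viability, defined as the nuclei count of treated wells over that of vehicle wells. Lung cancer cell lines in 1536-well plates were pin-tool dosed one day after seeding with one drug alone or with a fixed anchor-drug dose plus five library-drug doses (not always all listed) in √10 steps, then fixed, stained and imaged at 4× after 5 days.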

NCI-H1355 = tested on: NCI-H1355
How it was run: as §1

NCI-H2085 = tested on: NCI-H2085
How it was run: as §1

HCC-366 = tested on: HCC-366
How it was run: as §1

NCI-H1993 = tested on: NCI-H1993
How it was run: as §1

SW 1573 = tested on: SW 1573
How it was run: as §1

NCI-H3122 = tested on: NCI-H3122
How it was run: as §1

LK-2 = tested on: LK-2
How it was run: as §1

NCI-H2009 = tested on: NCI-H2009
How it was run: as §1

NCI-H2347 = tested on: NCI-H2347
How it was run: as §1

NCI-H1734 = tested on: NCI-H1734
How it was run: as §1

LC-2-ad = tested on: LC-2-ad
How it was run: as §1

NCI-H838 = tested on: NCI-H838
How it was run: as §1

NCI-H2228 = tested on: NCI-H2228
How it was run: as §1

EMC-BAC-2 = tested on: EMC-BAC-2
How it was run: as §1

RERF-LC-KJ = tested on: RERF-LC-KJ
How it was run: as §1

CAL-12T = tested on: CAL-12T
How it was run: as §1

PC-14 = tested on: PC-14
How it was run: as §1

NCI-H596 = tested on: NCI-H596
How it was run: as §1

HOP-62 = tested on: HOP-62
How it was run: as §1

SK-MES-1 = tested on: SK-MES-1
How it was run: as §1

NCI-H2405 = tested on: NCI-H2405
How it was run: as §1

Cc1cnc(-c2cnc(NCCNc3ccc(C#N)cn3)nc2-c2ccc(Cl)cc2Cl)[nH]1 + Cc1nc(NC(=O)N2CCC[C@H]2C(N)=O)sc1-c1ccnc(C(C)(C)C(F)(F)F)c1 [Alpelisib] (partner 2 µM)
relative viability (HCC-78; first compound 0.08 µM): 0.401 | relative viability (HCC-78; first compound 0.253 µM): 0.285 | relative viability (HCC-78; first compound 0.8 µM): 0.308 | relative viability (HCC-78; first compound 2.53 µM): 0.333 | relative viability (NCI-H1355; first compound 0.08 µM): 0.801 | relative viability (NCI-H1355; first compound 0.253 µM): 0.752 | relative viability (NCI-H1355; first compound 0.8 µM): 0.786 | relative viability (NCI-H1355; first compound 2.53 µM): 0.783 | relative viability (NCI-H2085; first compound 0.08 µM): 1.13 | relative viability (NCI-H2085; first compound 0.253 µM): 1.03 | relative viability (NCI-H2085; first compound 0.8 µM): 0.94 | relative viability (NCI-H2085; first compound 2.53 µM): 0.961 | relative viability (HCC-366; first compound 0.08 µM): 0.369 | relative viability (HCC-366; first compound 0.253 µM): 0.364 | relative viability (HCC-366; first compound 0.8 µM): 0.33 | relative viability (HCC-366; first compound 2.53 µM): 0.32 | relative viability (NCI-H1993; first compound 0.08 µM): 0.715 | relative viability (NCI-H1993; first compound 0.253 µM): 0.72 | relative viability (NCI-H1993; first compound 0.8 µM): 0.683 | relative viability (NCI-H1993; first compound 2.53 µM): 0.694 | relative viability (SW 1573; first compound 0.08 µM): 0.822 | relative viability (SW 1573; first compound 0.253 µM): 0.765 | relative viability (SW 1573; first compound 0.8 µM): 0.748 | relative viability (SW 1573; first compound 2.53 µM): 0.515 | relative viability (NCI-H3122; first compound 0.08 µM): 0.858 | relative viability (NCI-H3122; first compound 0.253 µM): 0.771 | relative viability (NCI-H3122; first compound 0.8 µM): 0.725 | relative viability (NCI-H3122; first compound 2.53 µM): 0.762 | relative viability (LK-2; first compound 0.08 µM): 1.21 | relative viability (LK-2; first compound 0.253 µM): 1.05 | relative viability (LK-2; first compound 0.8 µM): 1.13 | relative viability (LK-2; first compound 2.53 µM): 1.3 | relative viability (NCI-H2009; first compound 0.08 µM): 1.13 | relative viability (NCI-H2009; first compound 0.253 µM): 1.14 | relative viability (NCI-H2009; first compound 0.8 µM): 1.26 | relative viability (NCI-H2009; first compound 2.53 µM): 1.05 | relative viability (NCI-H2347; first compound 0.08 µM): 1.08 | relative viability (NCI-H2347; first compound 0.253 µM): 0.812 | relative viability (NCI-H2347; first compound 0.8 µM): 1.15 | relative viability (NCI-H2347; first compound 2.53 µM): 1.01 | relative viability (NCI-H1734; first compound 0.08 µM): 0.766 | relative viability (NCI-H1734; first compound 0.253 µM): 0.673 | relative viability (NCI-H1734; first compound 0.8 µM): 0.656 | relative viability (NCI-H1734; first compound 2.53 µM): 0.633 | relative viability (LC-2-ad; first compound 0.08 µM): 1.04 | relative viability (LC-2-ad; first compound 0.8 µM): 0.832 | relative viability (LC-2-ad; first compound 2.53 µM): 0.892 | relative viability (NCI-H838; first compound 0.08 µM): 1.06 | relative viability (NCI-H838; first compound 0.253 µM): 0.951 | relative viability (NCI-H838; first compound 0.8 µM): 1.18 | relative viability (NCI-H838; first compound 2.53 µM): 1.41 | relative viability (NCI-H2228; first compound 0.08 µM): 0.931 | relative viability (NCI-H2228; first compound 0.253 µM): 0.7 | relative viability (NCI-H2228; first compound 0.8 µM): 0.987 | relative viability (NCI-H2228; first compound 2.53 µM): 0.717 | relative viability (EMC-BAC-2; first compound 0.08 µM): 0.8 | relative viability (EMC-BAC-2; first compound 0.253 µM): 0.72 | relative viability (EMC-BAC-2; first compound 0.8 µM): 0.743 | relative viability (EMC-BAC-2; first compound 2.53 µM): 0.749 | relative viability (RERF-LC-KJ; first compound 0.08 µM): 0.984 | relative viability (RERF-LC-KJ; first compound 0.253 µM): 0.746 | relative viability (RERF-LC-KJ; first compound 0.8 µM): 0.775 | relative viability (RERF-LC-KJ; first compound 2.53 µM): 0.916 | relative viability (CAL-12T; first compound 0.08 µM): 1.2 | relative viability (CAL-12T; first compound 0.253 µM): 1.16 | relative viability (CAL-12T; first compound 0.8 µM): 1.2 | relative viability (CAL-12T; first compound 2.53 µM): 0.848 | relative viability (PC-14; first compound 0.08 µM): 0.927 | relative viability (PC-14; first compound 0.253 µM): 0.834 | relative viability (PC-14; first compound 0.8 µM): 0.924 | relative viability (PC-14; first compound 2.53 µM): 0.802 | relative viability (NCI-H596; first compound 0.08 µM): 0.532 | relative viability (NCI-H596; first compound 0.253 µM): 0.375 | relative viability (NCI-H596; first compound 0.8 µM): 0.517 | relative viability (NCI-H596; first compound 2.53 µM): 0.469 | relative viability (HOP-62; first compound 0.08 µM): 1 | relative viability (HOP-62; first compound 0.253 µM): 0.902 | relative viability (HOP-62; first compound 0.8 µM): 0.958 | relative viability (HOP-62; first compound 2.53 µM): 1.14 | relative viability (SK-MES-1; first compound 0.08 µM): 1.01 | relative viability (SK-MES-1; first compound 0.253 µM): 0.888 | relative viability (SK-MES-1; first compound 2.53 µM): 0.911 | relative viability (NCI-H2405; first compound 0.08 µM): 1.09 | relative viability (NCI-H2405; first compound 0.253 µM): 0.793 | relative viability (NCI-H2405; first compound 0.8 µM): 0.811 | relative viability (NCI-H2405; first compound 2.53 µM): 0.592
